Patent US9833497B2, “Human originated EGF domain proteins and use of the same” (CHENGDU SOURCEBIO LIMITED-LIABILITY COMPANY, priority 2013, dated 2017)

Legend:
Assay type in all cases: cell-based
E. coli DH5α = assay: Antibacterial activity: MIC and growth curve against E. coli DH5α in 96-well plate; conditions: minimal inhibitory concentration against E. coli DH5α; 96-well plate, 5×10^5 CFU/mL, 37° C., judged after 8 h
Summary of the method: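 MIC taken as lowest protein level with no bacterial growth, tracked by A600 every 30 min during 37 °C, 175 rpm culture. Two-fold protein series 50-12.5 μg/mL final, triplicate wells, against 5×10^5 CFU/mL of LB-washed mid-log cells.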

Serratia marcescens = assay: MIC against Gram-negative bacteria: Serratia marcescens; conditions: for MIC: S. marcescens; for MIC against S. marcescens: Serratia marcescens; for MIC against S. marcescens / MIC S. marcescens: 5×10^5 CFU/mL
Summary of the method: (§1)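 The recombinant human-originated EGF domain proteins were serially diluted two-fold against bacteria at 5×10^5 CFU/mL in LB medium. After shaken incubation at 37° C, the lowest concentration with no bacterial growth was recorded as the MIC.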

E. coli BL21 = assay: MIC against Gram-negative bacteria: E. coli BL21; conditions: for MIC / MIC against E. coli BL21: E. coli BL21; for MIC against E. coli BL21 / MIC E. coli BL21: 5×10^5 CFU/mL
Summary of the method: as §1

Aeromonas hydrophila = assay: MIC against Gram-negative bacteria: Aeromonas hydrophila; conditions: for MIC: A. hydrophila; for MIC against A. hydrophila: Aeromonas hydrophila; for MIC against A. hydrophila / MIC A. hydrophila: 5×10^5 CFU/mL
Summary of the method: as §1

Pseudomonas aeruginosa = assay: MIC against Gram-negative bacteria: Pseudomonas aeruginosa; conditions: for MIC: P. aeruginosa; for MIC against P. aeruginosa: Pseudomonas aeruginosa; for MIC against P. aeruginosa / MIC P. aeruginosa: 5×10^5 CFU/mL
Summary of the method: as §1

Enterobacter cloacae = assay: MIC against Gram-negative bacteria: Enterobacter cloacae; conditions: for MIC: E. cloacae; for MIC against E. cloacae: Enterobacter cloacae; for MIC against E. cloacae / MIC E. cloacae: 5×10^5 CFU/mL
Summary of the method: as §1

Citrobacter diversus = assay: MIC against Gram-negative bacteria: Citrobacter diversus; conditions: for MIC: C. diversus; for MIC against C. diversus: Citrobacter diversus; for MIC against C. diversus / MIC C. diversus: 5×10^5 CFU/mL
Summary of the method: as §1

Proteus mirabilis = assay: MIC against Gram-negative bacteria: Proteus mirabilis; conditions: for MIC: P. mirabilis; for MIC against P. mirabilis: Proteus mirabilis; for MIC against P. mirabilis / MIC P. mirabilis: 5×10^5 CFU/mL
Summary of the method: as §1

Klebsiella pneumonia = assay: MIC against Gram-negative bacteria: Klebsiella pneumonia; conditions: for MIC: K. pneumonia; for MIC against K. pneumonia: Klebsiella pneumonia; for MIC against K. pneumonia / MIC K. pneumonia: 5×10^5 CFU/mL
Summary of the method: as §1

Moraxella catarrhalis = assay: MIC against Gram-negative bacteria: Moraxella catarrhalis; conditions: for MIC: M. catarrhalis; for MIC against M. catarrhalis: Moraxella catarrhalis; for MIC against M. catarrhalis / MIC M. catarrhalis: 5×10^5 CFU/mL
Summary of the method: as §1

Proteus vulgaris = assay: MIC against Gram-negative bacteria: Proteus vulgaris; conditions: for MIC: P. vulgaris; for MIC against P. vulgaris: Proteus vulgaris; for MIC against P. vulgaris / MIC P. vulgaris: 5×10^5 CFU/mL
Summary of the method: as §1

PRT1000 (ELGGCISAPCAHGGTCYPQPSGYNCTCPTGYTGPTCS; listed as Homo sapiens)
MIC (E. coli DH5α): 50 µg/mL
MIC (Serratia marcescens; 10 h cultivation at 37° C.): 50 µg/mL
MIC (E. coli BL21; 10 h cultivation at 37° C.): 12.5 µg/mL
MIC (Aeromonas hydrophila; 10 h cultivation at 37° C.): 25 µg/mL
MIC (Pseudomonas aeruginosa; 10 h cultivation at 37° C.): 50 µg/mL
MIC (Enterobacter cloacae; 10 h cultivation at 37° C.): 12.5 µg/mL
MIC (Citrobacter diversus; 10 h cultivation at 37° C.): 50 µg/mL
MIC (Proteus mirabilis; 10 h cultivation at 37° C.): 12.5 µg/mL
MIC (Klebsiella pneumonia; 10 h cultivation at 37° C.): 25 µg/mL
MIC (Moraxella catarrhalis; 10 h cultivation at 37° C.): 25 µg/mL
MIC (Proteus vulgaris; 10 h cultivation at 37° C.): 25 µg/mL

PRT1043 (HGPNCSQECRCHNGGLCDRFTGQCRCAPGYTGDRCR; listed as Homo sapiens)
MIC (E. coli DH5α): 50 µg/mL
MIC (Serratia marcescens; 10 h cultivation at 37° C.): 50 µg/mL
MIC (E. coli BL21; 10 h cultivation at 37° C.): 12.5 µg/mL
MIC (Aeromonas hydrophila; 10 h cultivation at 37° C.): 25 µg/mL
MIC (Pseudomonas aeruginosa; 10 h cultivation at 37° C.): 25 µg/mL
MIC (Enterobacter cloacae; 10 h cultivation at 37° C.): 25 µg/mL
MIC (Citrobacter diversus; 10 h cultivation at 37° C.): 50 µg/mL
MIC (Proteus mirabilis; 10 h cultivation at 37° C.): 12.5 µg/mL
MIC (Klebsiella pneumonia; 10 h cultivation at 37° C.): 50 µg/mL
MIC (Moraxella catarrhalis; 10 h cultivation at 37° C.): 25 µg/mL
MIC (Proteus vulgaris; 10 h cultivation at 37° C.): 50 µg/mL

PRT1353 (SDMSCPNDCHQHGRCVNGMCVCDDGYTGEDCR; listed as Homo sapiens)
MIC (E. coli DH5α): 12.5 µg/mL
MIC against S. marcescens (Serratia marcescens; 10 h cultivation at 37° C.): 50 µg/mL
MIC against E. coli BL21 (E. coli BL21; 10 h cultivation at 37° C.): 25 µg/mL
MIC against A. hydrophila (Aeromonas hydrophila; 10 h cultivation at 37° C.): 25 µg/mL
MIC against P. aeruginosa (Pseudomonas aeruginosa; 10 h cultivation at 37° C.): 50 µg/mL
MIC against E. cloacae (Enterobacter cloacae; 10 h cultivation at 37° C.): 12.5 µg/mL
MIC against C. diversus (Citrobacter diversus; 10 h cultivation at 37° C.): 50 µg/mL
MIC against P. mirabilis (Proteus mirabilis; 10 h cultivation at 37° C.): 12.5 µg/mL
MIC against K. pneumonia (Klebsiella pneumonia; 10 h cultivation at 37° C.): 25 µg/mL
MIC against M. catarrhalis (Moraxella catarrhalis; 10 h cultivation at 37° C.): 25 µg/mL
MIC against P. vulgaris (Proteus vulgaris; 10 h cultivation at 37° C.): 25 µg/mL

PRT646 (DIDECTQVQHLCSQGRCENTEGSFLCICPAGFMASEEGTNCI; listed as Homo sapiens)
MIC (E. coli DH5α): 12.5 µg/mL
MIC S. marcescens (Serratia marcescens; 96-well plate, 37° C., 10 h): 50 µg/mL
MIC E. coli BL21 (E. coli BL21; 96-well plate, 37° C., 10 h): 12.5 µg/mL
MIC A. hydrophila (Aeromonas hydrophila; 96-well plate, 37° C., 10 h): 25 µg/mL
MIC P. aeruginosa (Pseudomonas aeruginosa; 96-well plate, 37° C., 10 h): 12.5 µg/mL
MIC E. cloacae (Enterobacter cloacae; 96-well plate, 37° C., 10 h): 12.5 µg/mL
MIC C. diversus (Citrobacter diversus; 96-well plate, 37° C., 10 h): 50 µg/mL
MIC P. mirabilis (Proteus mirabilis; 96-well plate, 37° C., 10 h): 12.5 µg/mL
MIC K. pneumonia (Klebsiella pneumonia; 96-well plate, 37° C., 10 h): 12.5 µg/mL
MIC M. catarrhalis (Moraxella catarrhalis; 96-well plate, 37° C., 10 h): 25 µg/mL
MIC P. vulgaris (Proteus vulgaris; 96-well plate, 37° C., 10 h): 25 µg/mL

PRT923 (LDDACISNPCHKGALCDTNPLNGQYICTCPQGYKGADCT; listed as Homo sapiens)
MIC (E. coli DH5α): 25 µg/mL
MIC (Serratia marcescens; 10 h cultivation at 37° C.): 25 µg/mL
MIC (E. coli BL21; 10 h cultivation at 37° C.): 50 µg/mL
MIC (Aeromonas hydrophila; 10 h cultivation at 37° C.): 50 µg/mL
MIC (Pseudomonas aeruginosa; 10 h cultivation at 37° C.): 25 µg/mL
MIC (Enterobacter cloacae; 10 h cultivation at 37° C.): 12.5 µg/mL
MIC (Citrobacter diversus; 10 h cultivation at 37° C.): 25 µg/mL
MIC (Proteus mirabilis; 10 h cultivation at 37° C.): 25 µg/mL
MIC (Klebsiella pneumonia; 10 h cultivation at 37° C.): 25 µg/mL
MIC (Moraxella catarrhalis; 10 h cultivation at 37° C.): 12.5 µg/mL
MIC (Proteus vulgaris; 10 h cultivation at 37° C.): 50 µg/mL

PRT1221 (DINECLQSPCKNGAICQNFPGSFNCVCKTGYTGKMCE; listed as Homo sapiens)
MIC (E. coli DH5α): 25 µg/mL
MIC against S. marcescens (Serratia marcescens; 96-well plate, 37° C., 10 h): 50 µg/mL
MIC against E. coli BL21 (E. coli BL21; 96-well plate, 37° C., 10 h): 12.5 µg/mL
MIC against A. hydrophila (Aeromonas hydrophila; 96-well plate, 37° C., 10 h): 25 µg/mL
MIC against P. aeruginosa (Pseudomonas aeruginosa; 96-well plate, 37° C., 10 h): 25 µg/mL
MIC against E. cloacae (Enterobacter cloacae; 96-well plate, 37° C., 10 h): 50 µg/mL
MIC against C. diversus (Citrobacter diversus; 96-well plate, 37° C., 10 h): 12.5 µg/mL
MIC against P. mirabilis (Proteus mirabilis; 96-well plate, 37° C., 10 h): 25 µg/mL
MIC against K. pneumonia (Klebsiella pneumonia; 96-well plate, 37° C., 10 h): 25 µg/mL
MIC against M. catarrhalis (Moraxella catarrhalis; 96-well plate, 37° C., 10 h): 50 µg/mL
MIC against P. vulgaris (Proteus vulgaris; 96-well plate, 37° C., 10 h): 12.5 µg/mL

PRT650 (DIDECQQGNLCVNGQCKNTEGSFRCTCGQGYQLSAAKDQCE; listed as Homo sapiens)
MIC (E. coli DH5α): 12.5 µg/mL
MIC S. marcescens (Serratia marcescens; 96-well plate, 37° C., 10 h): 50 µg/mL
MIC E. coli BL21 (E. coli BL21; 96-well plate, 37° C., 10 h): 25 µg/mL
MIC A. hydrophila (Aeromonas hydrophila; 96-well plate, 37° C., 10 h): 25 µg/mL
MIC P. aeruginosa (Pseudomonas aeruginosa; 96-well plate, 37° C., 10 h): 50 µg/mL
MIC E. cloacae (Enterobacter cloacae; 96-well plate, 37° C., 10 h): 50 µg/mL
MIC C. diversus (Citrobacter diversus; 96-well plate, 37° C., 10 h): 12.5 µg/mL
MIC P. mirabilis (Proteus mirabilis; 96-well plate, 37° C., 10 h): 50 µg/mL
MIC K. pneumonia (Klebsiella pneumonia; 96-well plate, 37° C., 10 h): 12.5 µg/mL
MIC M. catarrhalis (Moraxella catarrhalis; 96-well plate, 37° C., 10 h): 25 µg/mL
MIC P. vulgaris (Proteus vulgaris; 96-well plate, 37° C., 10 h): 12.5 µg/mL
